# Assay results reported in patent publication US20260174860A1, “HYBRID COMPOUNDS OF SCLAREOL AND DOXORUBICIN, THEIR SYNTHESIS AND APPLICATION” (INSTITUTE FOR BIOLOGICAL RESEARCH "SINISA STANKOVIC" - …, priority 2023, published 2026).
# How the values were obtained:
# [1] = Zetasizer measurement of size, polydispersity and zeta potential; type: physicochemical; conditions: 25° C., diluted 100 times with ultrapure water, mean of three
# Method: The Malvern Zetasizer Nano ZS (Malvern Instruments, United Kingdom) was used to analyze the physico-chemical stability characteristics of conjugates. The measurement range was from 0.6 nm up to […]. The mean size of conjugates, the polydispersity index (PDI) and zeta potential were measured. All measurements were taken at a temperature of 25° C. and each sample was diluted 100 times with ultrapure water. The measurements were repeated three times, and the results were presented as the mean value. PDI is a parameter used to define the size range of particles. The term “polydispersity” (or “dispersity” as recommended by IUPAC) describes the degree of non-uniformity of a size distribution of particles. Zeta potential represents the surface charge of nanoparticles and indicates their long-term stability.
# breast cancer cell lines = conditions: 0.1 μM DOX alone or combined with 50 μM SC; cited from earlier work
# [2] = system: P-glycoprotein-deficient NCI-H460 cells; assay: DOX and rhodamine 123 accumulation test, flow cytometry; type: cell-based, human; conditions: 50 μM SC
# Method: • a) First, DOX accumulation test was performed on three glioblastoma cell lines, U87, U87-TxR, and U251. Cells were trypsinized and counted, and then 100,000 cells per sample were collected in a tube for flow cytometry and resuspended in 500 μL of culture medium. Cells were treated with 20 μM and 50 µM SC. Immediately after SC treatment, cells were treated with 20 μM DOX, and samples were incubated at 37° C. in a humid atmosphere with 5% CO2 for 60 min. After the accumulation period, the samples were centrifuged, washed twice with cold Phosphate Buffered Saline (PBS), and finally resuspended in 1 mL of PBS. The fluorescence of the samples was read on the FL2 (red channel) of a cytofluorimeter (Partec, Munster, Germany), and the results were analyzed with the software package Summit 4.3. • b) Secondly, DOX and rhodamine 123 accumulation test was performed on non-small cell lung carcinoma cell lines NCI-H460 and NCI-H460/R. Cells were trypsinized and counted, and then 100,000 cells per sample were collected in a tube for flow cytometry and resuspended in 500 μl of culture medium. Cells were treated with 50 μM SC. Immediately after treatment, 5 μM Rho123 was added to one group of samples and the other 20 μM DOX. […] The samples were analyzed using a flow cytometer, reading for rhodamine 123 on FL1 (green channel) and DOX on FL2 (red channel). […]
# [3] = system: spheroids of ovarian cancer cell lines that are resistant to DOX; conditions: effect of SC; cited from earlier work
compound,measurement,setting,value
"N1-((25,3S,4S,6R)-3-hydroxy-2-methyl-6-(((1S,3S)-3,5,12-trihydroxy-3-(2-hydroxyacetyl)-10-methoxy-6,11-dioxo-1,2,3,4,6,11-hexahydrotetracen-1-yl)oxy)tetrahydro-2H-pyran-4-yl)-N4-(3-((4-((R,E)-3-hydroxy-5-((1R,2R,4aS,8aS)-2-hydroxy-2,5,5,8a-tetramethyldecahydronaphthalen-1-yl)-3-methylpent-1-en-1-yl)benzyl)amino)propyl) succinamide [CON1]",Z-Average,[1],189.4 ± 9.7 nm·days
"COc1cccc2c1C(=O)c1c(O)c3c(c(O)c1C2=O)C[C@@](O)(C(=O)CO)C[C@@H]3O[C@H]1C[C@H](N)[C@H](O)[C@H](C)O1 [DOX, doxorubicin]",rate of cell growth,breast cancer cell lines,76%
"C=C[C@](C)(O)CC[C@@H]1[C@@]2(C)CCCC(C)(C)[C@@H]2CC[C@@]1(C)O [SC, sclareol]",DOX or rhodamine 123 accumulation,[2],did not show any increase
same,accumulation of DOX in spheroids,[3],did not enhance
same,increase of the cytotoxicity of DOX,[3],4.5 times
